# Experimental data reported in patent US10494355B2, “Oxadiazole amine derivative compounds as histone deacetylase 6 inhibitor, and the pharmaceutical composition comprising the same” (Chong Kun Dang Pharmaceutical Corp., priority 2015, dated 2019).
# Assays:
# human recombinant HDAC1 = biological target: T1, human recombinant HDAC1 (Homo sapiens, UniProt Q13547); test: HDAC1 enzyme activity inhibition assay (HDAC Fluorimetric Drug Discovery Kit); format: biochemical; details: human recombinant HDAC1, 10 μM substrate, 30° C. 60 minutes
# T1 construct: purchased Enzo Life Science BML-SE456
# T1 sequence (Q13547 whole entry): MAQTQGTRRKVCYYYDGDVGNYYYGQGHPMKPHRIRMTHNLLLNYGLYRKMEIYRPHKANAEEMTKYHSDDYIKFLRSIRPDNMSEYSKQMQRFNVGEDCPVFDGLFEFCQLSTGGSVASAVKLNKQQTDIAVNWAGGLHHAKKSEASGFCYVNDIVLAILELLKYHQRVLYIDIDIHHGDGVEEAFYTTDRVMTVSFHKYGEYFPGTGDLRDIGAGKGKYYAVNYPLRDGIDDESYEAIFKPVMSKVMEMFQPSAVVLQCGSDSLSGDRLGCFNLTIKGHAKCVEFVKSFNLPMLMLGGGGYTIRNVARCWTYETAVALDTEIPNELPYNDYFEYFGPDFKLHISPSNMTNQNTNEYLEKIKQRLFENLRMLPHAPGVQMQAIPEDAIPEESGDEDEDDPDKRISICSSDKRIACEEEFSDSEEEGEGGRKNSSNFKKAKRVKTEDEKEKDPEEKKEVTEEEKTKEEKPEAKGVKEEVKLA
# Protocol: (§1) In order to examine the HDAC6 selectivity of the compounds of formula I of the present invention by HDAC1 and HDAC6 enzymatic activity inhibition assays, an experiment was performed using a conventional substance as a control.
# (§2) HDAC enzyme activity was measured using a HDAC Fluorimetric Drug Discovery Kit (BML-AK511, 516, Enzo Life Science). For the HDAC1 enzyme activity test, human recombinant HDAC1 (BML-SE456) was used as an enzyme source, and Fluor de Lys®-“SIRT1 (BNL-KI177) was used as a substrate. A 5-fold dilution of the compound was seeded into a 96-well plate, and then 0.3 μg of the enzyme and 10 μM of the substrate were added to each well of the plate and allowed to react at 30° C. for 60 minutes. Then, Fluor de Lys®-Developer II (BML-KI176) was added thereto and allowed to react for 30 minutes, after which the fluorescence value (Ex 360, Em 460) was measured using a multi-plate reader (Flexstation 3, Molecular Device). The HDAC6 enzyme was tested using human recombinant HDAC6 (382180) (Calbiochem) according to the same protocol as the HDAC1 enzyme activity test method. Based on the resulting values, each IC50 value was calculated using GraphPad Prism4.0 program.
# human recombinant HDAC6 = biological target: T2, human recombinant HDAC6 (Homo sapiens, UniProt Q9UBN7); test: HDAC6 enzyme activity inhibition assay (HDAC Fluorimetric Drug Discovery Kit); format: biochemical; details: 30° C. 60 minutes
# T2 construct: purchased Calbiochem 382180
# T2 sequence (Q9UBN7 1-1215): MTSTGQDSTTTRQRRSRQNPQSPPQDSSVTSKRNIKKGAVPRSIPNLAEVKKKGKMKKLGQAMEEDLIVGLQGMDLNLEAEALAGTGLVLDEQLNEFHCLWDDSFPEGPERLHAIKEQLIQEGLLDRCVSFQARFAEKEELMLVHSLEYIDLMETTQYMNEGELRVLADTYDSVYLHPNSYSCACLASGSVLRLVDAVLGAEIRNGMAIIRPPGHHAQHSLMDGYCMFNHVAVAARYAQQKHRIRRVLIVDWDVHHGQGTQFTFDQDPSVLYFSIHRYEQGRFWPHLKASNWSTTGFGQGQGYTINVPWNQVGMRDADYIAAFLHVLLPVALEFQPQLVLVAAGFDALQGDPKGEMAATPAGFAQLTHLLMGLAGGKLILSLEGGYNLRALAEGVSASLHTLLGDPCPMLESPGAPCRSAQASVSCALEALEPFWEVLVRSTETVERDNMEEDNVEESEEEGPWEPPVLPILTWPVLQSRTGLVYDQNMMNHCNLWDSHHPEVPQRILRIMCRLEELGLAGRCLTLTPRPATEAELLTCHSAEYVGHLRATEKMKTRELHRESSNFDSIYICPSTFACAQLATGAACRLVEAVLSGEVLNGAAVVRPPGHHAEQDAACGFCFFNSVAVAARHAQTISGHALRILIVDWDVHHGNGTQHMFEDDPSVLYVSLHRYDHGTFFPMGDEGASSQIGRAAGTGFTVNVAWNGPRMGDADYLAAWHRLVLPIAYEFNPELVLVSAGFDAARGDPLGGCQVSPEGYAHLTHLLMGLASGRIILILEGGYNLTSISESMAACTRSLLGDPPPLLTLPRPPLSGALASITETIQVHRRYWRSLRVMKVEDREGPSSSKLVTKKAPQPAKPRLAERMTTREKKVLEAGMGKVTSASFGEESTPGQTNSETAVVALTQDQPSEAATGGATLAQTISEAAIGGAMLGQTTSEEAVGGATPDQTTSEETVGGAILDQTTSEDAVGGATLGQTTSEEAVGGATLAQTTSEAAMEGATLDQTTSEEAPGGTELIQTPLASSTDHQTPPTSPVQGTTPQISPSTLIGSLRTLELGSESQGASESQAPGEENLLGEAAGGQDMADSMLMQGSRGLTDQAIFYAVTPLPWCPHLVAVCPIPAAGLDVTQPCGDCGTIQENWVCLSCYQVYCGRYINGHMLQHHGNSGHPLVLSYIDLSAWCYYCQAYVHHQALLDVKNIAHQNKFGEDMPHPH
# Protocol: as §1, §2
SMILES,IC50 (human recombinant HDAC1),IC50 (human recombinant HDAC6)
"FC(F)(F)c1cccc(C2(Nc3ncc(-c4nnc(C(F)(F)F)o4)cn3)CCC2)c1 [Compound 1670, 5-(5-(trifluoromethyl)-1,3,4-oxadiazol-2-yl)-N-(1-(3-(trifluoromethyl)phenyl)cyclobutyl)pyrimidin-2-amine]",> 10000 nM,596 nM
"Cc1ccccc1C1(Nc2ncc(-c3nnc(C(F)F)o3)cn2)CCC1 [Compound 1671, 5-(5-(difluoromethyl)-1,3,4-oxadiazol-2-yl)-N-(1-(o-tolyl)cyclobutyl)pyrimidin-2-amine]",> 10000 nM,44 nM
"Cc1ccccc1C1(Nc2ncc(-c3nnc(C(F)(F)F)o3)cn2)CCC1 [Compound 1672, N-(1-(o-tolyl)cyclobutyl)-5-(5-(trifluoromethyl)-1,3,4-oxadiazol-2-yl)pyrimidin-2-amine]",> 10000 nM,234 nM
"Cc1cccc(C2(Nc3ncc(-c4nnc(C(F)F)o4)cn3)CCC2)c1 [Compound 1673, 5-(5-(difluoromethyl)-1,3,4-oxadiazol-2-yl)-N-(1-(m-tolyl)cyclobutyl)pyrimidin-2-amine]",> 10000 nM,25 nM
"Cc1cccc(C2(Nc3ncc(-c4nnc(C(F)(F)F)o4)cn3)CCC2)c1 [Compound 1674, N-(1-(m-tolyl)cyclobutyl)-5-(5-(trifluoromethyl)-1,3,4-oxadiazol-2-yl)pyrimidin-2-amine]",> 10000 nM,132 nM
"Cc1ccc(C2(Nc3ncc(-c4nnc(C(F)F)o4)cn3)CCC2)cc1 [Compound 1675, 5-(5-(difluoromethyl)-1,3,4-oxadiazol-2-yl)-N-(1-(p-tolyl)cyclobutyl)pyrimidin-2-amine]",> 10000 nM,39 nM
"Cc1ccc(C2(Nc3ncc(-c4nnc(C(F)(F)F)o4)cn3)CCC2)cc1 [Compound 1676, N-(1-(p-tolyl)cyclobutyl)-5-(5-(trifluoromethyl)-1,3,4-oxadiazol-2-yl)pyrimidin-2-amine]",> 10000 nM,242 nM

# Next, values leading:
IC50 (human recombinant HDAC1),IC50 (human recombinant HDAC6),SMILES
> 10000 nM,267 nM,"O=C(OCc1ccccc1)N1CCC(Nc2ncc(-c3nnc(C(F)F)o3)cn2)(c2ccccc2)CC1 [Compound 1677, Benzyl 4-((5-(5-(difluoromethyl)-1,3,4-oxadiazol-2-yl)pyrimidin-2-yl)amino)-4-phenylpiperidine-1-carboxylate]"
> 10000 nM,225 nM,"FC(F)c1nnc(-c2cnc(NC3(c4ccccc4)CCNCC3)nc2)o1 [Compound 1678, 5-(5-(difluoromethyl)-1,3,4-oxadiazol-2-yl)-N-(4-phenylpiperidin-4-yl)pyrimidin-2-amine]"
> 10000 nM,21 nM,"Fc1ccccc1C1(Nc2ncc(-c3nnc(C(F)F)o3)cn2)CC1 [Compound 1683, 5-(5-(difluoromethyl)-1,3,4-oxadiazol-2-yl)-N-(1-(2-fluorophenyl)cyclopropyl)pyrimidin-2-amine]"
> 10000 nM,26 nM,"Fc1ccc(C2(Nc3ncc(-c4nnc(C(F)F)o4)cn3)CC2)cc1 [Compound 1711, 5-(5-(difluoromethyl)-1,3,4-oxadiazol-2-yl)-N-(1-(4-fluorophenyl)cyclopropyl)pyrimidin-2-amine]"
> 10000 nM,100 nM,"Fc1ccc(C2(Nc3ncc(-c4nnc(C(F)(F)F)o4)cn3)CC2)cc1 [Compound 1712, N-(1-(4-fluorophenyl)cyclopropyl)-5-(5-(trifluoromethyl)-1,3,4-oxadiazol-2-yl)pyrimidin-2-amine]"
> 10000 nM,33 nM,"Fc1cccc(C2(Nc3ncc(-c4nnc(C(F)F)o4)cn3)CC2)c1 [Compound 1713, 5-(5-(difluoromethyl)-1,3,4-oxadiazol-2-yl)-N-(1-(3-fluorophenyl)cyclopropyl)pyrimidin-2-amine]"
> 10000 nM,138 nM,"Fc1cccc(C2(Nc3ncc(-c4nnc(C(F)(F)F)o4)cn3)CC2)c1 [Compound 1714, N-(1-(3-fluorophenyl)cyclopropyl)-5-(5-(trifluoromethyl)-1,3,4-oxadiazol-2-yl)pyrimidin-2-amine]"
